The test system of one data set is E. coli 25922. Description: MBC/MFC against E. coli 25922. The data set is classed as cell-based. Particulars: Escherichia coli, Table 4.
For a further data set, the system named is S. aureus 29213. Description: MBC/MFC against S. aureus 29213. The data set is classed as cell-based. Particulars: Staphylococcus aureus, Table 4.
The next data set relates to C. albicans 10231. Description: MBC/MFC against C. albicans 10231. Particulars: Candida albicans, Table 4. Type of data set: cell-based.
The test system of the next data set is L929 cells. Description: CT50 cytotoxicity in L929 cells. Particulars: pH 7 phosphate; Table 4.

14 compounds from patent US9248117B2, “Substituted N,N-dihaloamines as antimicrobials” (priority 2010, dated 2016) can be followed below.

One may read the MBC as the smallest concentration meeting the test's criterion for killing. A lower MBC goes with greater bactericidal potency. A word on the MFC: it is the smallest concentration meeting the test's criterion for killing the fungus. High values mean less potent killing, low ones more potent killing.

In brackets after ≈: the same amount, converted by molar mass. A value given as a limit tells only on which side of the number the result lay.

Take `COCCN1C(=O)C(C)(C)N(Cl)C1(C)C` [Compound 39-01, 1-chloro-3-(2-methoxyethyl)-2,2,5,5-tetramethylimidazolidin-4-one]: the MBC was found to be 2 µg/mL (≈ 8.52 µM) with E. coli 25922 (pH 4 acetate), 128 µg/mL (≈ 545 µM) against E. coli 25922 (pH 7 phosphate), 2 µg/mL (≈ 8.52 µM) in the data set with S. aureus 29213 (pH 4 acetate) and 128 µg/mL (≈ 545 µM) with S. aureus 29213 (pH 7 phosphate). Moreover, the MFC in the data set with C. albicans 10231 (pH 4 acetate) came out at 8 µg/mL (≈ 34.1 µM); with C. albicans 10231 (pH 7 phosphate) it was 256 µg/mL (≈ 1090 µM). Further, the “CT50 L929 cells” value in the data set on L929 cells is recorded as 0.08 mM.

Regarding `COCCOCCOCCN1C(=O)C(C)(C)N(Cl)C1(C)C` [Compound 39-04, 1-Chloro-3-(2-(2-(2-methoxyethoxy)ethoxy)ethyl)-2,2,5,5-tetramethylimidazolidin-4-one], the MBC in the data set with E. coli 25922 (pH 4 acetate) was determined as 2 µg/mL (≈ 6.2 µM); against E. coli 25922 (pH 7 phosphate) it was 256 µg/mL (≈ 793 µM); in the data set on S. aureus 29213 (pH 4 acetate) it was 2 µg/mL (≈ 6.2 µM); with S. aureus 29213 (pH 7 phosphate) it was 256 µg/mL (≈ 793 µM). The MFC stood at 16 µg/mL (≈ 49.6 µM) against C. albicans 10231 (pH 4 acetate) and 1020 µg/mL (≈ 3170 µM) with C. albicans 10231 (pH 7 phosphate). Also, in the data set on L929 cells, the “CT50 L929 cells” value came out at 0.14 mM.

Turning to `COCCOCCOCCOCCN1C(=O)C(C)(C)N(Cl)C1(C)C` [Compound 39-12, 1-chloro-2,2,5,5-tetramethyl-3-(2,5,8,11-tetraoxatridecan-13-yl)imidazolidin-4-one], the MBC in the data set with E. coli 25922 (pH 4 acetate) was 8 µg/mL (≈ 21.8 µM); against E. coli 25922 (pH 7 phosphate) it was 256 µg/mL (≈ 698 µM); in the data set with S. aureus 29213 (pH 4 acetate) it was 8 µg/mL (≈ 21.8 µM); in the data set on S. aureus 29213 (pH 7 phosphate) it was 256 µg/mL (≈ 698 µM). For the same compound, the MFC with C. albicans 10231 (pH 4 acetate) was 16 µg/mL (≈ 43.6 µM); in the data set on C. albicans 10231 (pH 7 phosphate), above 1020 µg/mL. The “CT50 L929 cells” value in the data set on L929 cells is on record as 0.18 mM.

For `CC1(C)C(=O)N(CC(O)CO)C(C)(C)N1Cl` (centres unmarked) [Compound 39-27, 1-chloro-3-(2,3-dihydroxypropyl)-2,2,5,5-tetramethylimidazolidin-4-one], the MBC in the data set on E. coli 25922 (pH 4 acetate) was found to be 4 µg/mL (≈ 16 µM); in the data set with E. coli 25922 (pH 7 phosphate), 512 µg/mL (≈ 2040 µM); with S. aureus 29213 (pH 4 acetate), 4 µg/mL (≈ 16 µM); in the data set with S. aureus 29213 (pH 7 phosphate) it was 1020 µg/mL (≈ 4080 µM). Further, the MFC against C. albicans 10231 (pH 4 acetate) was 16 µg/mL (≈ 63.8 µM); in the data set on C. albicans 10231 (pH 7 phosphate), above 2050 µg/mL. Also, in the data set with L929 cells, the “CT50 L929 cells” value was 0.14 mM.

With `COCCOCCOCC[N+]1(C)CC(C)(C)N(Cl)C(C)(C)C1.[Cl-]` [Compound 39-106, 4-chloro-1-(2-(2-(2-methoxyethoxy)ethoxy)ethyl)-1,3,3,5,5-pentamethylpiperazin-1-ium chloride], the minimal bactericidal concentration (MBC) is 16 µg/mL in the data set with E. coli 25922 (pH 4 acetate), 256 µg/mL in the data set with E. coli 25922 (pH 7 phosphate), 32 µg/mL against S. aureus 29213 (pH 4 acetate) and above 512 µg/mL in the data set with S. aureus 29213 (pH 7 phosphate). Also, the MFC in the data set with C. albicans 10231 (pH 4 acetate) was 64 µg/mL; in the data set on C. albicans 10231 (pH 7 phosphate) it was above 512 µg/mL. In addition, the “CT50 L929 cells” value in the data set with L929 cells came out at 0.24 mM.

As for `CC1(C)CN(CCO)C(=O)C(C)(C)N1Cl` [Compound 39-108, 4-chloro-1-(2-hydroxyethyl)-3,3,5,5-tetramethylpiperazin-2-one], the MBC stood at 1 µg/mL (≈ 4.26 µM) in the data set on E. coli 25922 (pH 4 acetate), 32 µg/mL (≈ 136 µM) with E. coli 25922 (pH 7 phosphate), 2 µg/mL (≈ 8.52 µM) against S. aureus 29213 (pH 4 acetate) and 128 µg/mL (≈ 545 µM) in the data set on S. aureus 29213 (pH 7 phosphate). In addition, the figures for the MFC in the data set with C. albicans 10231 (pH 4 acetate) and against C. albicans 10231 (pH 7 phosphate) were 8 µg/mL (≈ 34.1 µM) and 64 µg/mL (≈ 273 µM), respectively. The “CT50 L929 cells” value with L929 cells stood at 0.1 mM.

Consider `COCCOCCOCC[N+](C)(C)CCN1CC(C)(C)N(Cl)C1=O` [Compound 39-110, 2-(3-chloro-4,4-dimethyl-2-oxoimidazolidin-1-yl)-N-(2-(2-(2-methoxyethoxy)ethoxy)ethyl)-N,N-dimethylethanaminium 4-methylbenzenesulfonate], for which the MBC was found to be 128 µg/mL in the data set with E. coli 25922 (pH 4 acetate), 1020 µg/mL with E. coli 25922 (pH 7 phosphate), 128 µg/mL with S. aureus 29213 (pH 4 acetate) and 2050 µg/mL in the data set with S. aureus 29213 (pH 7 phosphate). The MFC is 256 µg/mL against C. albicans 10231 (pH 4 acetate) and above 2050 µg/mL against C. albicans 10231 (pH 7 phosphate). In the data set with L929 cells, the “CT50 L929 cells” value was found to be 3.9 mM.

Take `COCCOCCN1C(=O)C(C)(C)N(Cl)C1(C)C` [Compound 39-112, 1-chloro-3-(2-(2-methoxyethoxy)ethyl)-2,2,5,5-tetramethylimidazolidin-4-one]: the MBC against E. coli 25922 (pH 4 acetate) is 4 µg/mL (≈ 14.3 µM); in the data set with E. coli 25922 (pH 7 phosphate), 128 µg/mL (≈ 459 µM); against S. aureus 29213 (pH 4 acetate), 8 µg/mL (≈ 28.7 µM); in the data set on S. aureus 29213 (pH 7 phosphate), 128 µg/mL (≈ 459 µM). Moreover, the results for the MFC in the data set with C. albicans 10231 (pH 4 acetate) and with C. albicans 10231 (pH 7 phosphate) were 8 µg/mL (≈ 28.7 µM) and 1020 µg/mL (≈ 3670 µM), respectively. Further, in the data set with L929 cells, the “CT50 L929 cells” value stood at 0.16 mM.

`COCCOCCOCCCN1C(=O)C(C)(C)N(Cl)C1(C)C` [Compound 39-114, 1-chloro-3-(3-(2-(2-methoxyethoxy)ethoxy)propyl)-2,2,5,5-tetramethylimidazolidin-4-one]: the MBC worked out at 8 µg/mL (≈ 23.7 µM) in the data set on E. coli 25922 (pH 4 acetate), 256 µg/mL (≈ 760 µM) with E. coli 25922 (pH 7 phosphate), 4 µg/mL (≈ 11.9 µM) against S. aureus 29213 (pH 4 acetate) and 256 µg/mL (≈ 760 µM) in the data set on S. aureus 29213 (pH 7 phosphate). The MFC is 8 µg/mL (≈ 23.7 µM) in the data set on C. albicans 10231 (pH 4 acetate) and above 1020 µg/mL against C. albicans 10231 (pH 7 phosphate). Also, the “CT50 L929 cells” value in the data set on L929 cells was determined as 0.24 mM.

For `COCCOCCOCCOCCOCCOCCOCCOCCOCCOCCOCCOCCOCCOCCN1C(=O)C(C)(C)N(Cl)C1(C)C` [Compound 39-116, 1-chloro-2,2,5,5-tetramethyl-3-(2,5,8,11,14,17,20,23,26,29,32,35,38,41-tetradecaoxatritetracontan-43-yl)imidazolidin-4-one], the MBC with E. coli 25922 (pH 4 acetate) was found to be 16 µg/mL (≈ 19.8 µM); in the data set on E. coli 25922 (pH 7 phosphate) it was 512 µg/mL (≈ 634 µM); against S. aureus 29213 (pH 4 acetate) it was 16 µg/mL (≈ 19.8 µM); against S. aureus 29213 (pH 7 phosphate), 1020 µg/mL (≈ 1270 µM). The figures for the MFC against C. albicans 10231 (pH 4 acetate) and against C. albicans 10231 (pH 7 phosphate) were 128 µg/mL (≈ 159 µM) and above 2050 µg/mL, respectively. For the same compound, the “CT50 L929 cells” value in the data set on L929 cells was 4.1 mM.

`COCCOCCOCCOCCOCCOCCOCCOCCOCCOCCOCCOCCOCCOCCOCCOCCOCCOCCOCCOCCOCCOCCOCCOCCOCCOCCOCCOCCOCCOCCOCCOCCOCCOCCOCCOCCOCCOCCOCCN1C(=O)C(C)(C)N(Cl)C1(C)C` [Compound 39-118, 1-chloro-2,2,5,5-tetramethyl-3-(2,5,8,11,14,17,20,23,26,29,32,35,38,41,44, 47,50,53,56,59,62,65,68,71,74,77,80,83,86,89, 92,95,98,101,104,107,110,113,116-nonatriacontaoxaoctadecahectan-118-yl)imidazolidin-4-one]: the MBC worked out at 32 µg/mL (≈ 16.8 µM) with E. coli 25922 (pH 4 acetate), 2050 µg/mL (≈ 1070 µM) against E. coli 25922 (pH 7 phosphate), 8 µg/mL (≈ 4.19 µM) against S. aureus 29213 (pH 4 acetate) and 4100 µg/mL (≈ 2150 µM) with S. aureus 29213 (pH 7 phosphate). For the same compound, the MFC against C. albicans 10231 (pH 4 acetate) is 256 µg/mL (≈ 134 µM); against C. albicans 10231 (pH 7 phosphate), above 2050 µg/mL. For the same compound, in the data set on L929 cells, the “CT50 L929 cells” value was found to be 11.3 mM.

On to `CC1(C)C(CO)OC(=O)N1Cl` (centres unmarked) [Compound 39-122, 3-chloro-5-(hydroxymethyl)-4,4-dimethyloxazolidin-2-one], for which the MBC in the data set on E. coli 25922 (pH 4 acetate) was 2 µg/mL (≈ 11.1 µM); against E. coli 25922 (pH 7 phosphate), 2 µg/mL (≈ 11.1 µM); in the data set on S. aureus 29213 (pH 4 acetate), 4 µg/mL (≈ 22.3 µM); in the data set with S. aureus 29213 (pH 7 phosphate), 4 µg/mL (≈ 22.3 µM). Also, the minimum fungicidal concentration (MFC) with C. albicans 10231 (pH 4 acetate) was above 512 µg/mL; in the data set with C. albicans 10231 (pH 7 phosphate) it was 1020 µg/mL (≈ 5700 µM). In addition, the “CT50 L929 cells” value with L929 cells stood at 0.14 mM.

On to `CN1CC(C)(CO)N(Cl)C1=O` (centres unmarked) [Compound 39-124, 3-chloro-4-(hydroxymethyl)-1,4-dimethylimidazolidin-2-one], for which the MBC in the data set on E. coli 25922 (pH 4 acetate) was 16 µg/mL (≈ 89.6 µM); against E. coli 25922 (pH 7 phosphate), 8 µg/mL (≈ 44.8 µM); in the data set on S. aureus 29213 (pH 4 acetate), 16 µg/mL (≈ 89.6 µM); with S. aureus 29213 (pH 7 phosphate) it was 32 µg/mL (≈ 179 µM). Further, the MFC in the data set with C. albicans 10231 (pH 4 acetate) is 8 µg/mL (≈ 44.8 µM); against C. albicans 10231 (pH 7 phosphate), above 1020 µg/mL. For the same compound, the “CT50 L929 cells” value in the data set on L929 cells is 0.33 mM.

`CC1(C)C(=O)N(CCCCO)C(C)(C)N1Cl` [Compound 39-125, 1-chloro-3-(4-hydroxybutyl)-2,2,5,5-tetramethylimidazolidin-4-one]: the MBC against E. coli 25922 (pH 4 acetate) is 2 µg/mL (≈ 8.04 µM); against E. coli 25922 (pH 7 phosphate) it was 32 µg/mL (≈ 129 µM); against S. aureus 29213 (pH 4 acetate), 2 µg/mL (≈ 8.04 µM); in the data set with S. aureus 29213 (pH 7 phosphate), 256 µg/mL (≈ 1030 µM). Also, the MFC was 128 µg/mL (≈ 515 µM) against C. albicans 10231 (pH 4 acetate) and above 1020 µg/mL in the data set on C. albicans 10231 (pH 7 phosphate). Besides, the “CT50 L929 cells” value with L929 cells is listed as 2.21 mM.
